Details: for logD: pH 7.4

CCOC(=O)CN(C(=O)CCl)c1ccccc1OC(C)C
logP: 2.75

CCCCn1ccc(=O)c(O)c1CC
logP: 1.22

Cc1ncc([N+](=O)[O-])n1CC(O)Cn1c([N+](=O)[O-])cnc1C
logP: 0.31

Nc1ccn(C2OC(CO)CC2F)c(=O)n1 (configuration not stated)
logP: -1.18

CCOP(=O)(O)Cc1ccc(Cl)cc1
logP: 1.6

CCN(C)C(=O)c1cccc(Oc2ccccc2)c1
logP: 2.98

Nc1ccc(C(=O)O)c(O)c1
logP: 0.89

CCOP(=O)(O)Cc1ccc(S(C)(=O)=O)cc1
logP: -0.4

CN(Cc1cccc(Br)c1)N=O
logP: 1.65

CC(C)c1ccc(C2C(=O)c3ccccc3C2=O)cc1
logP: 4.43

CC1=C(C(=O)O)N2C(=O)C(NC(NC(=O)c3nn(-c4ccccc4)c(=O)[nH]c3=O)c3ccc(O)cc3)C2SC1 (configuration not stated)
logP: 1.26

CCOCCOCCOP(=S)(N1CC1)N1CC1
logP: 0.38

O=C(O)C=Cc1ccc(O)cc1
logP: 1.46

Cc1c(O)c(=O)ccn1C(C)C
logP: 0.05

CN1CCN(Cc2ncc([N+](=O)[O-])n2C)CC1
logP: -0.32

COc1ccc(Cn2cc(F)c(=O)[nH]c2=O)cc1
logP: 1.04

CNC12CCCCC1CC(O)c1ccccc12 (configuration not stated)
logP: 1.84

Cc1c(F)c(F)c(C(=O)O)c(F)c1F
logP: 3.15

Clc1ccncc1
logP: 1.28

O=C(O)c1cc(O)nc(O)n1
logP: -0.83

OC1CCN(Cc2cccc(COc3ccccc3)c2)CC1
logP: 2.77

Cc1ccc(OCC(OC(=S)n2ccnc2)C(C)(C)C)cc1 (configuration not stated)
logP: 4.66

O=C(O)COc1ccccc1[N+](=O)[O-]
logP: 1.13

CN(C)C(=O)NCCCn1nc(-c2ccccc2)ccc1=O
logP: 1.61

Nc1ccc(C(=O)O)cc1I
logP: 2.36

CCOC(=O)C1=CNC2CCCCN2C1=O (configuration not stated)
logP: 0.57

CCCN(C)CC(F)(F)F
logP: 2.18

O=c1[nH]c2cc(Cl)ccc2n1C1CCN(CCCC(c2ccc(F)cc2)c2ccc(F)cc2)CC1
logP: 7.1

Cc1ncc([N+](=O)[O-])n1CCOC(N)=O
logP: -0.29

Oc1ccc(C(O)(Cn2ccnc2)c2ccc(-c3ccncc3)cc2)cc1 (configuration not stated)
logP: 2.49

CCCCCCCCn1ccc(=O)c(O)c1C
logP: 2.88

CCN1CCc2nc(N)oc2CC1
logP: 0.05

CN(C)CC/C=C1\c2ccccc2COc2ccccc21
logP: 4.29

O=c1c2c(nc3ccccn13)CCC2
logP: 1.19

CSc1ncnc2c1ncn2[C@@H]1O[C@H](CO)[C@@H](O)[C@H]1O
logP: 0.09

Nc1nc(=O)c2[nH]c(N)c(Cc3ccsc3)c2[nH]1
logP: 1.08

COc1cc(C(N)=O)ccc1-c1cn2cccnc2n1
logP: 0.7

CC(C)(C)C(COc1ccc(Br)cc1)OC(=O)n1ccnc1 (configuration not stated)
logP: 4.37

CC(=O)O[C@H]1C[C@H](O[C@H]2[C@@H](O)C[C@H](O[C@H]3[C@@H](O)C[C@H](OC4CC[C@@]5(C)[C@H](CC[C@@H]6[C@@H]5CC[C@]5(C)[C@@H](C7=CC(=O)OC7)CC[C@]65O)C4)O[C@@H]3C)O[C@@H]2C)O[C@H](C)[C@H]1O[C@@H]1O[C@H](CO)[C@@H](O)[C@H](O)[C@H]1O (some centres not stated)
logP: 1.23

OC(Cn1ccnc1)(c1cccc(Br)c1)c1ccc(F)cc1F (configuration not stated)
logP: 3.6

O=C1CC2(CCCC2)C(=O)N1Oc1ccccc1
logP: 1.77

CCC(=O)OCC1OC(n2cc(I)c(=O)[nH]c2=O)CC1O (configuration not stated)
logP: 0.68

Cc1nn(-c2ccccc2)c(Nc2ccccc2)c1[N+](=O)[O-]
logP: 2.98

Cc1cc(=O)c(=O)[nH][nH]1
logP: -0.3

CCC(C(=O)OC(C)c1ccccc1)C(CO)Cc1cncn1C (configuration not stated)
logP: 2.23

CN1CC(C)(C)C(=O)c2ccccc21
logP: 2.72

O=C(Cc1cccnc1)NN1CC=CCC1
logP: 0.05

COC(=O)NC1=NCC(c2ccccc2Cl)N1C (configuration not stated)
logP: 2.08

COC(=O)c1ccccc1S(=O)(=O)NC(=O)Nc1nc(C)nc(OC)n1
logP: 2.2

COc1ccc2c3c1O[C@H]1[C@@H](O)C=C[C@H]4[C@@H](C2)N(C)CC[C@@]341.O=P(O)(O)O
logD: -1.4

O=c1[nH]c(=O)n(Cc2ccc(Cl)cc2)cc1F
logP: 1.64

COC(=O)NC1=NCC(c2ccccc2F)N1C (configuration not stated)
logP: 1.53

CCC(=O)n1c(=O)[nH]cc(F)c1=O
logP: 0.19

CCC(C(=O)OCc1ccccc1C)C(CO)Cc1cncn1C (configuration not stated)
logP: 2.42

CCCCC(=O)OC[C@H]1O[C@@H](n2cc(I)c(=O)[nH]c2=O)C[C@@H]1O
logP: 1.44

Fc1ccccc1C1=NCC(=S)N(CC(F)(F)F)c2ccc(Cl)cc21
logP: 4.03

COc1cccc2c1C(=O)c1c(O)c3c(c(O)c1C2=O)CC(O)(C(C)=O)CC3OC1CC(N(CC#N)CC(=O)O)C(O)C(C)O1 (configuration not stated)
logP: 0.03

N=C(N)N1CCc2ccccc2C1
logP: 0.75

NS(=O)(=O)c1cc2c(cc1Cl)NC(c1ccccc1)=NS2(=O)=O
logP: 1.4

CCOP(=O)(OCC)OC(=CCl)c1ccc(Cl)cc1Cl
logP: 3.81

NS(=O)(=O)c1cc2c(cc1Cl)N=C(Cc1ccccc1)NS2(=O)=O
logP: 1.7

CC(=O)Nc1nc(=O)cc(-c2ccc([N+](=O)[O-])o2)s1
logP: 1.01

Cc1ccc(C)c(Oc2cccc(C(=O)NC(C)C)c2)c1
logP: 4.35

C[N+](C)(C)CC1CSCO1.[I-] (configuration not stated)
logP: -2.7

N=C(N)NN=Cc1ccc(Cl)c([N+](=O)[O-])c1
logP: 0.53

CNc1nnc(-c2cc(Cl)cc(Cl)c2)c(=O)n1N
logP: 1.91

CCOC(=O)C1(c2ccccc2)CCN(CCC(O)c2ccccc2)CC1 (configuration not stated)
logP: 4.04

CCOc1cccc(-c2nnc(S)n(C)c2=O)c1
logP: 2.67

CCCCCCCCO[C@@H]1O[C@H](CO)[C@H](O)[C@H](O)[C@H]1O
logP: 1.46

Cc1nc(N)sc1C(=O)CCN1CCCC1
logP: 1.74

COC(=O)NC1=NCC(c2ccc(Cl)cc2)N1C (configuration not stated)
logP: 2.17

NC(=O)NCCC[C@H](N)C(=O)O
logP: -3.19

CC(=O)n1c(=O)[nH]cc(F)c1=O
logP: -0.34

COc1ncnc2c1ncn2C1OC(CO)C(OC(=O)C(C)(C)C)C1OC(=O)C(C)(C)C (configuration not stated)
logP: 3.61

NC(=O)Nc1ccc(Cl)c(Cl)c1
logP: 2.65

Clc1ccc(-c2ccc(Cl)c(Cl)c2Cl)cc1Cl
logP: 6.79

O=C1N[C@@H](Cc2ccccc2)C(=O)N[C@H]1Cc1ccccc1
logP: 1.59

O=C(c1c(F)c(F)c(F)c(F)c1F)c1ccc2n1CCC2C(=O)O (configuration not stated)
logP: 3.24

Nc1nc(=O)n(C2OC(CO)CC2F)cc1Cl (configuration not stated)
logP: -0.46

CSc1nnc(-c2cc(Cl)cc(Cl)c2)c(=O)n1N
logP: 3.02

CCCC(=O)n1c(=O)[nH]cc(F)c1=O
logP: 0.67

CCCCSc1nnc(C(C)C)c(=O)n1N
logP: 3.21

Cc1ccn2c(=O)ccnc2c1
logP: 0.56

CNC(=O)NC(=O)C(C)(C(=O)OC)C1C=CCCC1 (configuration not stated)
logP: 1.75

CC(C)(C)C(COc1ccc(Cl)cc1)OC(=S)n1ccnc1 (configuration not stated)
logP: 4.96

Cc1cc(C(=O)O)ccc1N
logP: 1.37

O=CNCC#CCC(NC(=O)C(Cc1ccc2ccccc2c1)Cc1cccc2ccccc12)C(=O)NC(CC1CCCCC1)C(O)CC(=O)NCCN1CCOCC1 (configuration not stated)
logP: 5.44

NC(=S)c1ccc(Cl)cc1
logP: 2.4

Cc1cccc(C(N)=O)c1O
logP: 2.12

Cc1cccc(C)c1C(=O)CCN1CCCCC1
logP: 3.53

CCOC(=O)C1=C(C)NC(C)=C(C(=O)OC)C1c1cccc(Cl)c1Cl (configuration not stated)
logP: 3.86

Cn1c(=O)c2[nH]c(Cl)nc2n(C)c1=O
logD: -0.85

Cc1cc2n(c1C(=O)c1ccccc1)CCC2C(=O)O (configuration not stated)
logP: 2.85

Cc1ccc(C(=O)C(C)CN2CCCCC2)cc1 (configuration not stated)
logP: 3.65

CCCCCCCO
logP: 2.62

CC(=O)Nc1nc(NC(O)CC(O)CO)c(Cl)nc1[N+](=O)[O-] (configuration not stated)
logP: -0.66

COC(=O)NC1=NCC(c2ccc(C=O)cc2)N1C (configuration not stated)
logP: 0.74

COc1ccc(CON2C(=O)CC3(CCCC3)C2=O)cc1
logP: 2.23

CC(C)(C)C(COc1ccc(F)cc1)OC(=O)n1ccnc1 (configuration not stated)
logP: 3.68

CCOC(=O)c1cnc2n(c1=O)CCC(C)C2 (configuration not stated)
logP: 0.66

CC(C)c1cccc(C2C(=O)c3ccccc3C2=O)c1
logP: 4.43

OC(Cn1ccnc1)(c1ccccc1)c1ccc(Br)cc1 (configuration not stated)
logP: 3.35

N#Cc1cccnc1
logP: 0.36

CC1CC2CC=CCC2(N)c2ccccc21 (configuration not stated)
logP: 3.4

CCC(=O)OCOC(=O)c1cn(CC)c2nc(C)ccc2c1=O
logP: 1.7

Cc1cccc2nc3n(c(=O)c12)CCC3
logP: 1.59

CN(C)C(=O)Nc1ccc(Oc2nnnn2C2CCCCC2)cc1
logP: 2.18

CNC(=O)c1cccc(Oc2cc(C)ccc2C)c1
logP: 3.76

CNC12CCCCC1COc1ccccc12 (configuration not stated)
logP: 3.31

O=C1c2ccccc2C(=O)C1c1ccc(C(F)(F)F)cc1
logP: 3.78

NS(=O)(=O)c1ccc(Cl)c([N+](=O)[O-])c1
logP: 0.66

CC(=O)Nc1cc(C(C)(C)C)c(O)cc1C
logP: 2.18

Nc1c(Cl)cccc1Cl
logP: 2.76

CC(C)(C)c1ccc(C2CCCC(O)C2)c(O)c1 (configuration not stated)
logP: 4.05

CC(C)Oc1ccc(OCC(OC(=O)n2ccnc2)C(C)(C)C)cc1 (configuration not stated)
logP: 4.08

CCOc1ccc(OCC(OC(=O)n2ccnc2)C(C)(C)C)cc1 (configuration not stated)
logP: 3.86

C=CC12COC(=O)C(=C)C1C1OC(=O)C(=C)C1C(OC(=O)C(=C)C)C2 (configuration not stated)
logP: 1.56

NCCCCN
logP: -0.7

CC(=O)Nc1ccc2c(c1)S(=O)(=O)c1ccc(C)cc1C2=O
logP: 2.76

O=C1CC2(CCCC2)C(=O)N1O
logP: -0.26

CC(C)(C)C(COc1ccc(C#N)cc1)OC(=O)n1ccnc1 (configuration not stated)
logP: 3.15

CN(C)C(=O)n1cc(F)c(=O)[nH]c1=O
logP: -0.37

NCC1(CC(=O)O)CCCCC1
logP: -1.1

CC1OC(=O)C(C)C(O)C1C (configuration not stated)
logP: 0.36

Nc1ccc(Cl)c(Cl)c1Cl
logP: 3.33

CCn1cc(C(=O)O)c(=O)c2cc(F)c(N3CCNCC3)nc21
logP: -0.2

CNC(=O)Oc1cc(C)c(N(C)C)c(C)c1
logP: 2.56

NC(=O)c1csc([C@@H]2O[C@H](CO)[C@@H](O)[C@H]2O)n1
logP: -1.73

Cc1c(C)c(C)c(C)c(C)c1C
logP: 5.11

CCOC(=O)c1cc(=O)[nH]c(=O)[nH]1
logP: 0.68

COC(=O)c1cnc2n(c1=O)CCCC2
logP: -0.25

FC(F)(F)c1nc2c(Cl)c(Cl)c(Cl)cc2[nH]1
logP: 3.87

Cc1nc2ccccn2c(=O)c1C
logP: 1

NS(=O)(=O)c1ccc(Cl)cc1
logP: 1.15

COC(=O)c1c(C)[nH]c(-c2cccc(Cl)n2)c1C(=O)OC
logP: 2.65

CCCC(=O)OCn1cc2c(=O)[nH]cnc2n1
logP: 0.33

NC(=S)NNC(=O)c1ccc2c(c1)OCO2
logP: 0.21

From the OPERA property sets (Mansouri et al. 2018)
